ChEMBL document CHEMBL1201862, “PubChem BioAssay data set” (2004)
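Cells were grown in 96-well plates and exposed to each compound for 48 hours at five concentrations; endpoints were interpolated linearly between bracketing concentrations, or set to the highest concentration if not reached. GI50 = concentration required for 50% inhibition of growth.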 Calls of active or inactive are those of the source. No stated cut-off is given here; in the data, active = GI50 up to about 1.1 µM and inactive = higher.

Columns and labels:
Test in all cases: NCI anticancer screen, dose series, 48 h
DU-145 = tested on: DU-145
A549 = tested on: A549
SK-MEL-5 = tested on: SK-MEL-5
UO-31 = tested on: UO-31
UACC-62 = tested on: UACC-62
HCT-116 = tested on: HCT-116
MOLT-4 = tested on: MOLT-4
SF-268 = tested on: SF-268
CCRF-CEM = tested on: CCRF-CEM
SF-539 = tested on: SF-539
HOP-62 = tested on: HOP-62
M14 = tested on: M14
Hs-578T = tested on: Hs-578T
SN12C = tested on: SN12C
RXF 393 = tested on: RXF 393
ACHN = tested on: ACHN
KM12 = tested on: KM12
TK-10 = tested on: TK-10
MDA-MB-231 = tested on: MDA-MB-231
PC-3 = tested on: PC-3
MDA-MB-435 = tested on: MDA-MB-435
UACC-257 = tested on: UACC-257
HL-60 = tested on: HL-60
NCI-H226 = tested on: NCI-H226
SR = tested on: SR
NCI/ADR-RES = tested on: NCI/ADR-RES
RPMI-8226 = tested on: RPMI-8226
SF-295 = tested on: SF-295
SW-620 = tested on: SW-620
U-251 = tested on: U-251
BT-549 = tested on: BT-549
OVCAR-4 = tested on: OVCAR-4
786-0 = tested on: 786-0
HOP-92 = tested on: HOP-92
HCC 2998 = tested on: HCC 2998
HCT-15 = tested on: HCT-15
OVCAR-5 = tested on: OVCAR-5
NCI-H460 = tested on: NCI-H460
OVCAR-8 = tested on: OVCAR-8
EKVX = tested on: EKVX
MDA-N = tested on: MDA-N
OVCAR-3 = tested on: OVCAR-3
SK-MEL-28 = tested on: SK-MEL-28
COLO 205 = tested on: COLO 205
MCF7 = tested on: MCF7
SNB-75 = tested on: SNB-75
A498 = tested on: A498
SNB-19 = tested on: SNB-19
K562 = tested on: K562
SK-OV-3 = tested on: SK-OV-3
T47D = tested on: T47D
LOX IMVI = tested on: LOX IMVI
CAKI-1 = tested on: CAKI-1
NCI-H23 = tested on: NCI-H23
SK-MEL-2 = tested on: SK-MEL-2
HT-29 = tested on: HT-29
Malme-3M = tested on: Malme-3M
NCI-H522 = tested on: NCI-H522
IGROV-1 = tested on: IGROV-1

SMILES: Cc1cc(C)n(C(=O)CSc2nnc(SCC(=O)n3nc(C)cc3C)s2)n1
- GI50 (DU-145): > 100 µM (inactive)
- GI50 (A549): > 100 µM (inactive)
- GI50 (SK-MEL-5): > 100 µM (inactive)
- GI50 (UO-31): > 100 µM (inactive)
- GI50 (UACC-62): > 100 µM (inactive)
- GI50 (HCT-116): > 100 µM (inactive)
- GI50 (MOLT-4): > 100 µM (inactive)
- GI50 (SF-268): > 100 µM (inactive)
- GI50 (CCRF-CEM): > 100 µM (inactive)
- GI50 (SF-539): > 100 µM (inactive)
- GI50 (HOP-62): 80 µM (inactive)
- GI50 (M14): > 100 µM (inactive)
- GI50 (Hs-578T): 33.8 µM (inactive)
- GI50 (SN12C): > 100 µM (inactive)
- GI50 (RXF 393): > 100 µM (inactive)
- GI50 (ACHN): > 100 µM (inactive)
- GI50 (KM12): > 100 µM (inactive)
- GI50 (TK-10): > 100 µM (inactive)
- GI50 (MDA-MB-231): > 100 µM (inactive)
- GI50 (PC-3): > 100 µM (inactive)
- GI50 (MDA-MB-435): > 100 µM (inactive)
- GI50 (UACC-257): > 100 µM (inactive)
- GI50 (HL-60): > 100 µM (inactive)
- GI50 (NCI-H226): > 100 µM (inactive)
- GI50 (SR): > 100 µM (inactive)
- GI50 (NCI/ADR-RES): > 100 µM (inactive)
- GI50 (RPMI-8226): > 100 µM (inactive)
- GI50 (SF-295): > 100 µM (inactive)
- GI50 (SW-620): > 100 µM (inactive)
- GI50 (U-251): > 100 µM (inactive)
- GI50 (BT-549): > 100 µM (inactive)
- GI50 (OVCAR-4): > 100 µM (inactive)
- GI50 (786-0): > 100 µM (inactive)
- GI50 (HOP-92): > 100 µM (inactive)
- GI50 (HCC 2998): > 100 µM (inactive)
- GI50 (HCT-15): > 100 µM
- GI50 (OVCAR-5): > 100 µM (inactive)
- GI50 (NCI-H460): > 100 µM (inactive)
- GI50 (OVCAR-8): > 100 µM (inactive)
- GI50 (EKVX): 25.5 µM (inactive)
- GI50 (MDA-N): > 100 µM (inactive)
- GI50 (OVCAR-3): 91.8 µM (inactive)
- GI50 (SK-MEL-28): > 100 µM (inactive)
- GI50 (COLO 205): > 100 µM (inactive)
- GI50 (MCF7): > 100 µM (inactive)
- GI50 (SNB-75): 40 µM (inactive)
- GI50 (A498): > 100 µM (inactive)
- GI50 (SNB-19): > 100 µM (inactive)
- GI50 (K562): > 100 µM (inactive)
- GI50 (SK-OV-3): > 100 µM (inactive)
- GI50 (T47D): > 100 µM (inactive)
- GI50 (LOX IMVI): > 100 µM (inactive)
- GI50 (CAKI-1): > 100 µM (inactive)
- GI50 (NCI-H23): > 100 µM (inactive)

SMILES: O=CN1CCN(C(=O)c2ccc(Cl)cc2)C1=S
- GI50 (DU-145): 15.7 µM (inactive)
- GI50 (A549): 14.9 µM (inactive)
- GI50 (UACC-62): 15.9 µM (inactive)
- GI50 (HCT-116): 18 µM (inactive)
- GI50 (MOLT-4): 19.2 µM (inactive)
- GI50 (SF-268): 19.2 µM (inactive)
- GI50 (CCRF-CEM): 12.8 µM (inactive)
- GI50 (SF-539): 26.6 µM (inactive)
- GI50 (HOP-62): 19.1 µM (inactive)
- GI50 (M14): 14.6 µM (inactive)
- GI50 (Hs-578T): 49.5 µM (inactive)
- GI50 (SN12C): 14.7 µM (inactive)
- GI50 (RXF 393): 16.8 µM (inactive)
- GI50 (ACHN): 17.3 µM (inactive)
- GI50 (KM12): 12.7 µM (inactive)
- GI50 (TK-10): 15 µM (inactive)
- GI50 (SK-MEL-2): 16.3 µM (inactive)
- GI50 (MDA-MB-231): 16.4 µM (inactive)
- GI50 (PC-3): 15.7 µM (inactive)
- GI50 (MDA-MB-435): 14.8 µM (inactive)
- GI50 (UACC-257): 17.5 µM (inactive)
- GI50 (HL-60): 23.3 µM (inactive)
- GI50 (NCI-H226): 43.5 µM (inactive)
- GI50 (NCI/ADR-RES): 36.5 µM (inactive)
- GI50 (RPMI-8226): 3.35 µM (inactive)
- GI50 (SF-295): 26.9 µM (inactive)
- GI50 (SW-620): 18 µM (inactive)
- GI50 (U-251): 14.4 µM (inactive)
- GI50 (BT-549): 25.4 µM (inactive)
- GI50 (OVCAR-4): 17.3 µM (inactive)
- GI50 (786-0): 6.79 µM (inactive)
- GI50 (HOP-92): 0.714 µM (active)
- GI50 (HCC 2998): 19.8 µM (inactive)
- GI50 (HT-29): 17.2 µM (inactive)
- GI50 (Malme-3M): 24.5 µM (inactive)
- GI50 (HCT-15): 21.3 µM
- GI50 (OVCAR-5): 17.4 µM (inactive)
- GI50 (NCI-H460): 21.6 µM (inactive)
- GI50 (OVCAR-8): 15.6 µM (inactive)
- GI50 (NCI-H522): 14.8 µM (inactive)
- GI50 (EKVX): 15.6 µM (inactive)
- GI50 (MDA-N): 16.6 µM (inactive)
- GI50 (OVCAR-3): 15.4 µM (inactive)
- GI50 (SK-MEL-28): 19.1 µM (inactive)
- GI50 (COLO 205): 20.7 µM (inactive)
- GI50 (MCF7): 2.79 µM (inactive)
- GI50 (IGROV-1): 14.2 µM (inactive)
- GI50 (SNB-75): 20 µM (inactive)
- GI50 (A498): 14.8 µM (inactive)
- GI50 (SNB-19): 15.6 µM (inactive)
- GI50 (K562): 12.9 µM (inactive)
- GI50 (SK-OV-3): 25.1 µM (inactive)
- GI50 (T47D): 12.8 µM (inactive)
- GI50 (LOX IMVI): 11.7 µM (inactive)
- GI50 (CAKI-1): 14.1 µM (inactive)
- GI50 (NCI-H23): 23 µM (inactive)
